Test results reported in ChEMBL document CHEMBL4507279, “Data for DCP probe BI-9627” (2021).

What was measured:
[1] = target: Homeodomain-interacting protein kinase 3 (Homo sapiens) (UniProt Q9H422); conditions: Compound concentration 1000.0 nM
[2] = target: Mitogen-activated protein kinase kinase kinase 3 (Homo sapiens) (UniProt Q99759); conditions: Compound concentration 1000.0 nM
[3] = test system: Mast/stem cell growth factor receptor Kit (Homo sapiens), P10721 [V559D]; conditions: Compound concentration 1000.0 nM
Chain of Mast/stem cell growth factor receptor Kit (Homo sapiens), P10721 [V559D] (P10721 whole entry V559D): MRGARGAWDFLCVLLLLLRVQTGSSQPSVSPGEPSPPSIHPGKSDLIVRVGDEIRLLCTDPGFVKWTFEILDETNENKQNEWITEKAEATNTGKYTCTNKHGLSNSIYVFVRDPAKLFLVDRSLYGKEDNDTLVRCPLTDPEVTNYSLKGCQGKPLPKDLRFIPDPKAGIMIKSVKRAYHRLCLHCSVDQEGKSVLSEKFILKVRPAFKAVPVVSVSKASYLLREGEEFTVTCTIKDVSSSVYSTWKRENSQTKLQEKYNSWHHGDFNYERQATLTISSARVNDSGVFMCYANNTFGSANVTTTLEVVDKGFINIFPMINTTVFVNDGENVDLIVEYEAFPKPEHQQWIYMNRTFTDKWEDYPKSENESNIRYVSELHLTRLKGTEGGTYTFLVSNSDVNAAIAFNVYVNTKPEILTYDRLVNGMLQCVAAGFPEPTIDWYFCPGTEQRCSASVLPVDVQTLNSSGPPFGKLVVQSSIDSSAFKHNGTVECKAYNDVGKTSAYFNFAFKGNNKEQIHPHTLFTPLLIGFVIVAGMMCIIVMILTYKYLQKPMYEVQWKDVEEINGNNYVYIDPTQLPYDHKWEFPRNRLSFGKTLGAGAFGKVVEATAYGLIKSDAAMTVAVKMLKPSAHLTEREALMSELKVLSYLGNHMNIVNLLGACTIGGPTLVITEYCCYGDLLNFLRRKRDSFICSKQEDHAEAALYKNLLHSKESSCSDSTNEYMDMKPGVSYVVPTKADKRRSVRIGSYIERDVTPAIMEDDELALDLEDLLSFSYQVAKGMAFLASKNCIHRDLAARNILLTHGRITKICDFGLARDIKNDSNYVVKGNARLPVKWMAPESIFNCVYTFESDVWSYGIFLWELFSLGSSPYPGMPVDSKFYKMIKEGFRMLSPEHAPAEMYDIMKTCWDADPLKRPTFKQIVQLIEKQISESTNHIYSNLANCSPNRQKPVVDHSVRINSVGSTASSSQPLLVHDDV

[4] = target: SRSF protein kinase 3 (Homo sapiens) (UniProt Q9UPE1); conditions: Compound concentration 1000.0 nM
[5] = test system: Epidermal growth factor receptor (Homo sapiens), P00533 [T790M]; conditions: Compound concentration 1000.0 nM
[6] = target: Dual specificity tyrosine-phosphorylation-regulated kinase 1A (Homo sapiens) (UniProt Q13627); conditions: Compound concentration 1000.0 nM
[7] = target: NUAK family SNF1-like kinase 2 (Homo sapiens) (UniProt Q9H093); conditions: Compound concentration 1000.0 nM
[8] = target: Tyrosine-protein kinase HCK (Homo sapiens) (UniProt P08631); conditions: Compound concentration 1000.0 nM
[9] = target: Serine/threonine-protein kinase RIO3 (Homo sapiens) (UniProt O14730); conditions: Compound concentration 1000.0 nM
[10] = target: Tyrosine-protein kinase TXK (Homo sapiens) (UniProt P42681); conditions: Compound concentration 1000.0 nM
[11] = target: Interleukin-1 receptor-associated kinase 1 (Homo sapiens) (UniProt P51617); conditions: Compound concentration 1000.0 nM
Chain of Interleukin-1 receptor-associated kinase 1 (Homo sapiens) (P51617 whole entry, looked up, canonical isoform): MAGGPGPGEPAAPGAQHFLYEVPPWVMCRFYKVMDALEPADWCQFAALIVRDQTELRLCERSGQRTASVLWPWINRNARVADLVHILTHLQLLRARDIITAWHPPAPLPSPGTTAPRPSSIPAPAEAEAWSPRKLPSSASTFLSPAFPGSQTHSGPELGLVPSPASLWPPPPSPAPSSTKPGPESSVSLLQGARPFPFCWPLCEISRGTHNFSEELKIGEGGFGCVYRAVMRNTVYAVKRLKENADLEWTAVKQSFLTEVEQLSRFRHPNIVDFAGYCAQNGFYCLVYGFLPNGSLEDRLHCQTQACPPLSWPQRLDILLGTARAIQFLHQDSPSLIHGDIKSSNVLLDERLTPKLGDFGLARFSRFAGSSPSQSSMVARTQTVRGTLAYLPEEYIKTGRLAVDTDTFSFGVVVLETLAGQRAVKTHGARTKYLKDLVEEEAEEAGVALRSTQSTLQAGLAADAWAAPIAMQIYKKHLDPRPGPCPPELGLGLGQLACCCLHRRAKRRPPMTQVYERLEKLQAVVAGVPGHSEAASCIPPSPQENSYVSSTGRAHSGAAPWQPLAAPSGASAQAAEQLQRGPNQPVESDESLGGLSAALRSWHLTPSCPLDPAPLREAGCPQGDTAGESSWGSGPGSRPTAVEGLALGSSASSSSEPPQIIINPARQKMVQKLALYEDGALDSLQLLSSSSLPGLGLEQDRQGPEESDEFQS

[12] = target: Phosphorylase b kinase regulatory subunit alpha, liver isoform (Homo sapiens) (UniProt P46019); conditions: Compound concentration 1000.0 nM
[13] = target: Serine/threonine-protein kinase PknB (Mycobacterium tuberculosis) (UniProt P9WI81); conditions: Compound concentration 1000.0 nM
[14] = target: Cyclin-dependent kinase 17 (Homo sapiens) (UniProt Q00537); conditions: Compound concentration 1000.0 nM
[15] = target: T1, Alpha-1D adrenergic receptor (Homo sapiens) (UniProt P25100); conditions: Compound concentration 10.0 uM
T1 sequence (whole entry): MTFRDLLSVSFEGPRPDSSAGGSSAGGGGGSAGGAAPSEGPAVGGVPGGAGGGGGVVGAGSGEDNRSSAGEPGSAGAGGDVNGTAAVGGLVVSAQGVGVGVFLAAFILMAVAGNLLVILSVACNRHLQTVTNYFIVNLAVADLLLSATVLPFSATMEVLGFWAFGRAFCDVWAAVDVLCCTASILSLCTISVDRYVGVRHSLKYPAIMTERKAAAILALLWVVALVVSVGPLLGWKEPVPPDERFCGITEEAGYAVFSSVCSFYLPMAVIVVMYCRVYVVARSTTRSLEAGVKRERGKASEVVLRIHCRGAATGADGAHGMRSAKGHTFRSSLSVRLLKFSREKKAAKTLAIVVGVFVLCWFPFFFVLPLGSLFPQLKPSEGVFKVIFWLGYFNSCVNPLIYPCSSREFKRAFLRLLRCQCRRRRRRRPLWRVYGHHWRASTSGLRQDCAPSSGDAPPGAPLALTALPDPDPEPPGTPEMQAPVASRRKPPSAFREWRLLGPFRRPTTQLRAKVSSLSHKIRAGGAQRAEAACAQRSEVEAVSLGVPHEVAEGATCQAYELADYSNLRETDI

[16] = target: Serine/threonine-protein kinase PAK 2 (Homo sapiens) (UniProt Q13177); conditions: Compound concentration 1000.0 nM
[17] = target: Ephrin type-B receptor 2 (Homo sapiens) (UniProt P29323); conditions: Compound concentration 1000.0 nM
[18] = target: Platelet-derived growth factor receptor beta (Homo sapiens) (UniProt P09619); conditions: Compound concentration 1000.0 nM
[19] = target: Myosin light chain kinase, smooth muscle (Homo sapiens) (UniProt Q15746); conditions: Compound concentration 1000.0 nM
[20] = target: Activin receptor type-2A (Homo sapiens) (UniProt P27037); conditions: Compound concentration 1000.0 nM
Chain of Activin receptor type-2A (Homo sapiens) (P27037 whole entry): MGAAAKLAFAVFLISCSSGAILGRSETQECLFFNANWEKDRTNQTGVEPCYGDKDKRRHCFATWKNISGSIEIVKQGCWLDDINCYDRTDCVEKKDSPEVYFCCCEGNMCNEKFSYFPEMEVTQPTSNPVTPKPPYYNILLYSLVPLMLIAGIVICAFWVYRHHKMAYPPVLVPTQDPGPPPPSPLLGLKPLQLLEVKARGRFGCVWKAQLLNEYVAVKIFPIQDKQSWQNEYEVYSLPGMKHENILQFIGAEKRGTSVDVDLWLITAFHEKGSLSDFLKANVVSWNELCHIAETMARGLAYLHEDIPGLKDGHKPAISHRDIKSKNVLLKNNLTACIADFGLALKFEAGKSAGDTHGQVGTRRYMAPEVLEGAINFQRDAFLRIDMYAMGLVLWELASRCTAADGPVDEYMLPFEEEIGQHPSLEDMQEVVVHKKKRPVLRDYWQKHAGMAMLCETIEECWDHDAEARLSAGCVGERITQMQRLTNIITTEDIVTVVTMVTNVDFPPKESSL

[21] = target: Mast/stem cell growth factor receptor Kit (Homo sapiens) (UniProt P10721); conditions: Compound concentration 1000.0 nM
Chain of Mast/stem cell growth factor receptor Kit (Homo sapiens) (P10721 whole entry): as the sequence (P10721 whole entry V559D) above, with D559V counted along it

[22] = target: Tyrosine-protein kinase Lck (Homo sapiens) (UniProt P06239); conditions: Compound concentration 1000.0 nM
[23] = target: Mitogen-activated protein kinase kinase kinase 11 (Homo sapiens) (UniProt Q16584); conditions: Compound concentration 1000.0 nM
Chain of Mitogen-activated protein kinase kinase kinase 11 (Homo sapiens) (Q16584 whole entry, looked up): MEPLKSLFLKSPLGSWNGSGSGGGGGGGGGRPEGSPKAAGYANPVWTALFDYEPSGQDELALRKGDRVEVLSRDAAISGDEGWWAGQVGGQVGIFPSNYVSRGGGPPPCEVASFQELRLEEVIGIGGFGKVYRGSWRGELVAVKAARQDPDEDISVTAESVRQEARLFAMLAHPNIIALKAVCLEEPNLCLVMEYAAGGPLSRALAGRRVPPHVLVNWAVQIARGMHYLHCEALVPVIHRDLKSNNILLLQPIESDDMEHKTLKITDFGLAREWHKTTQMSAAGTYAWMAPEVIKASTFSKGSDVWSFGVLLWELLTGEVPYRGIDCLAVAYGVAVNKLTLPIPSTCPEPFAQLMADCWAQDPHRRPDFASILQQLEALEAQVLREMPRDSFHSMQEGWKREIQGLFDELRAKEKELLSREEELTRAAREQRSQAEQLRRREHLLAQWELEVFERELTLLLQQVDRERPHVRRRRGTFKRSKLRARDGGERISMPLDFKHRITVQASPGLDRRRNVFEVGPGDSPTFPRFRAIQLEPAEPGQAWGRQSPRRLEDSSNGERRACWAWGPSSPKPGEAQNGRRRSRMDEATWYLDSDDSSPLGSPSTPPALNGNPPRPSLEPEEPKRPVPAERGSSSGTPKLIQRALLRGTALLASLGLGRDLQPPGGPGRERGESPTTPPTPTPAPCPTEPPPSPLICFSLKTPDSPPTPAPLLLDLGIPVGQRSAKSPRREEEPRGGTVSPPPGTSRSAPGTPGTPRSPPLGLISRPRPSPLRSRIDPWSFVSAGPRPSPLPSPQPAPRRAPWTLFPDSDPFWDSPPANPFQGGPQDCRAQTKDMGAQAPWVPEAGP

[24] = target: Ribosomal protein S6 kinase alpha-1 (Homo sapiens) (UniProt Q15418); conditions: Compound concentration 1000.0 nM
[25] = target: Serine/threonine-protein kinase 16 (Homo sapiens) (UniProt O75716); conditions: Compound concentration 1000.0 nM
Chain of Serine/threonine-protein kinase 16 (Homo sapiens) (O75716 whole entry): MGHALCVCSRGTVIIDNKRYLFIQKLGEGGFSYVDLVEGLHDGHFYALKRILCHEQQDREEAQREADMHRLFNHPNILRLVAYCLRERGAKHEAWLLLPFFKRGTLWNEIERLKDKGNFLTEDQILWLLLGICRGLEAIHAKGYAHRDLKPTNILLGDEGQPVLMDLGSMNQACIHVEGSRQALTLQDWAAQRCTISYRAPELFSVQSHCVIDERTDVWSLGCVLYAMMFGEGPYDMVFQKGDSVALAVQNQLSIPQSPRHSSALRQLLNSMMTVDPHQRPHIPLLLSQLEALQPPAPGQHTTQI

[26] = target: Mitogen-activated protein kinase kinase kinase 1 (Homo sapiens) (UniProt Q13233); conditions: Compound concentration 1000.0 nM
[27] = test system: Phosphatidylinositol 4,5-bisphosphate 3-kinase catalytic subunit alpha isoform (Homo sapiens), P42336 [C420R]; conditions: Compound concentration 1000.0 nM
Chain of Phosphatidylinositol 4,5-bisphosphate 3-kinase catalytic subunit alpha isoform (Homo sapiens), P42336 [C420R] (P42336 whole entry C420R, canonical isoform): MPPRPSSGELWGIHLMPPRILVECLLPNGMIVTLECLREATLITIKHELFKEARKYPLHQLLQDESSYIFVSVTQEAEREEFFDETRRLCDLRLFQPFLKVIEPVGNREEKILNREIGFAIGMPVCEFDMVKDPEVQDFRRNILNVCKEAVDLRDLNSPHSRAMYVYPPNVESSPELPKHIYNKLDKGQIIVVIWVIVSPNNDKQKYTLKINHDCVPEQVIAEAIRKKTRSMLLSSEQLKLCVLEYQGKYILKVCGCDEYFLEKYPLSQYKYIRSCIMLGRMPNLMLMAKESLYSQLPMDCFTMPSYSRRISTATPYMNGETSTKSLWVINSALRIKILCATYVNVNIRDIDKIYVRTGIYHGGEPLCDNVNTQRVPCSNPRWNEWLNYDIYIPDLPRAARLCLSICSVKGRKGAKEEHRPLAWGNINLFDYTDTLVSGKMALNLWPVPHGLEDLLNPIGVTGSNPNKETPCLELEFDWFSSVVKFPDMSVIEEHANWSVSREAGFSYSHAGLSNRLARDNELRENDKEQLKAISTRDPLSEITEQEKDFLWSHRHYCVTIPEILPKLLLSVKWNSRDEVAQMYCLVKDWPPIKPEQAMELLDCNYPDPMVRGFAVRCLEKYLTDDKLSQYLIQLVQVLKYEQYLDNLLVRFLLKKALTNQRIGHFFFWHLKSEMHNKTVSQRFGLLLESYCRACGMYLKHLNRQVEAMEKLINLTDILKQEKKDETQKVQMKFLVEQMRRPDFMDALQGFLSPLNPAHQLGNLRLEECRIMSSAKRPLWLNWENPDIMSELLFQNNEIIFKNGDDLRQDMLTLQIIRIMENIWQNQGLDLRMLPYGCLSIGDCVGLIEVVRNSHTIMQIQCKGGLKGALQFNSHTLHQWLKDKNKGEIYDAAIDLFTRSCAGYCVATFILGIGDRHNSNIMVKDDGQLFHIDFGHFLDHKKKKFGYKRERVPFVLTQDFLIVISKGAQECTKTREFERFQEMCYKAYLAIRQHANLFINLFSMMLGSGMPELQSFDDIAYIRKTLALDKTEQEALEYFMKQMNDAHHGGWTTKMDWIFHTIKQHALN

[28] = target: Mast/stem cell growth factor receptor Kit (Homo sapiens) (UniProt P10721); conditions: Compound concentration 1000.0 nM; remark: listed apart in the source
[29] = target: Ephrin type-B receptor 3 (Homo sapiens) (UniProt P54753); conditions: Compound concentration 1000.0 nM
[30] = target: Mitogen-activated protein kinase kinase kinase 14 (Homo sapiens) (UniProt Q99558); conditions: Compound concentration 1000.0 nM
[31] = target: Serine/threonine-protein kinase STK11 (Homo sapiens) (UniProt Q15831); conditions: Compound concentration 1000.0 nM
[32] = target: Dual specificity tyrosine-phosphorylation-regulated kinase 1B (Homo sapiens) (UniProt Q9Y463); conditions: Compound concentration 1000.0 nM
[33] = target: Mitogen-activated protein kinase kinase kinase 7 (Homo sapiens) (UniProt O43318); conditions: Compound concentration 1000.0 nM
[34] = target: Cyclin-dependent kinase 15 (Homo sapiens) (UniProt Q96Q40); conditions: Compound concentration 1000.0 nM
[35] = target: MAP kinase-interacting serine/threonine-protein kinase 2 (Homo sapiens) (UniProt Q9HBH9); conditions: Compound concentration 1000.0 nM
Chain of MAP kinase-interacting serine/threonine-protein kinase 2 (Homo sapiens) (Q9HBH9 whole entry, looked up): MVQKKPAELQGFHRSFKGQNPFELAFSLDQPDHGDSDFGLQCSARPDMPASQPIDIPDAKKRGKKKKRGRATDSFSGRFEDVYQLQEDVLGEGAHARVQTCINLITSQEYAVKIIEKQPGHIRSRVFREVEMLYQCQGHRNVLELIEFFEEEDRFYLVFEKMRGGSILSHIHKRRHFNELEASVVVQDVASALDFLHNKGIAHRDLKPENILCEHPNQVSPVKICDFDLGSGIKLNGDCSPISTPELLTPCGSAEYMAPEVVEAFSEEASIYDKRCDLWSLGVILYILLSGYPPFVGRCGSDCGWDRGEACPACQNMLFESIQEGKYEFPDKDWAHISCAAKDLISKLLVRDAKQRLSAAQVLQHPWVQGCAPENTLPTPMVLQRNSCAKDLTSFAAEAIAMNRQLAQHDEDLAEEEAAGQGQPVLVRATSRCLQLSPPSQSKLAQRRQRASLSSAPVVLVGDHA

[36] = target: SRSF protein kinase 1 (Homo sapiens) (UniProt Q96SB4); conditions: Compound concentration 1000.0 nM
[37] = test system: Receptor-type tyrosine-protein kinase FLT3 (Homo sapiens), P36888 [D835H]; conditions: Compound concentration 1000.0 nM

Row | Compound | residual activity [1] [%] | residual activity [2] [%] | residual activity [3] [%] | residual activity [4] [%] | residual activity [5] [%] | residual activity [6] [%] | residual activity [7] [%] | residual activity [8] [%] | residual activity [9] [%] | residual activity [10] [%] | residual activity [11] [%] | residual activity [12] [%] | residual activity [13] [%] | residual activity [14] [%] | inhibition [15] [%] | residual activity [16] [%] | residual activity [17] [%] | residual activity [18] [%] | residual activity [19] [%] | residual activity [20] [%] | also measured
1 | CC(=O)N1CCC(c2ccc(C(=O)NC3=NCCN3)cc2C(F)(F)F)CC1 [BI 0054] | 72 | 100 | 100 | 100 | 100 | 74 | 90 | 100 | 98 | 82 | 78 | 100 | 100 | 89 | 50 | 95 | 82 | 95 | 90 | 100 | residual activity [21]: 91%; residual activity [22]: 100%; residual activity [23]: 100%; residual activity [24]: 100%; residual activity [25]: 100%; residual activity [26]: 86%; residual activity [27]: 93%; residual activity [28]: 100%; residual activity [29]: 93%; residual activity [30]: 95%; residual activity [31]: 71%; residual activity [32]: 37%; residual activity [33]: 100%; residual activity [34]: 100%; residual activity [35]: 100%; residual activity [36]: 100%; residual activity [37]: 93%
2 | CC(=O)N1CCC(c2ccc(C(=O)NC(=N)N)cc2C(F)(F)F)CC1 [BI 9627] | 82 | 90 | 100 | 100 | 100 | 74 | 100 | 100 | 100 | 100 | 100 | 100 | 100 | 100 | 50 | 100 | 100 | 100 | 90 | 100 | residual activity [21]: 95%; residual activity [22]: 100%; residual activity [23]: 100%; residual activity [24]: 100%; residual activity [25]: 100%; residual activity [26]: 96%; residual activity [27]: 100%; residual activity [28]: 95%; residual activity [29]: 97%; residual activity [30]: 100%; residual activity [31]: 73%; residual activity [32]: 45%; residual activity [33]: 100%; residual activity [34]: 100%; residual activity [35]: 100%; residual activity [36]: 86%; residual activity [37]: 96%
